Data on twelve compounds can be found in patent publication US10308652B2, “Tricyclic heterocyclic compounds useful as inhibitors of TNF” (BRISTOL-MYERS SQUIBB COMPANY, priority 2015, dated 2019).

By IC50 is commonly meant the concentration needed to halve the response being measured. Higher therefore signals a need for much substance.

Sequence of TNFα (P01375 77-233): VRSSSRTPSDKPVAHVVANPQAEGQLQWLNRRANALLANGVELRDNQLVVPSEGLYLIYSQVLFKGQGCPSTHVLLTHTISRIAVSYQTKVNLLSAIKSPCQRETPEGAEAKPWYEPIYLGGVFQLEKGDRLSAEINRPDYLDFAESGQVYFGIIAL

This test addresses TNFα (Homo sapiens (Human), UniProt P01375). Put plainly: TNF induced HEK-Blue assay. The class given is cell-based. Particulars: TNFα 0.5 ng/ml; HEK-Blue-CD40L cells, NF-κB-driven secreted alkaline phosphatase reporter; 18 h. The procedure: TNF or CD40L-induced HEK-Blue Assay Test compounds serially diluted in DMSO were plated in an assay plate (Labcyte, Cat. #LP-0200) at final concentrations ranging from 0.004 μM to 25μM. TNFα (final concentration 0.5 ng/ml) or CD4OL (final concentration 30 ng/ml) in assay buffer [DMEM, 4.5 g/l glucose (Gibco, Cat. 21063-029), 10% FBS (Sigma, F4135), 1% Penicillin-Streptomycin (Gibco, Cat. 15140-122), 1% Anti-Anti (Gibco, Cat. 15240-112) and 2 mM L-glutamine (Gibco, Cat. 25030-081)] was then added to the assay plate. After a 30 minute pre-incubation at 37° C. and 5% CO2, HEK-Blue-CD40L cells (InvivoGen, Cat. Code hkb-cd40) containing a NF-κB-driven secreted alkaline phosphatase reporter gene were seeded into the assay plate at a density of 20,000 cells per well. This plate was then incubated for 18 h at 37° C. and 5% CO2. Secreted alkaline phosphatase expression was measured using QUANTI-Blue (InvivoGen, Cat. Code rep-qb1) according to manufacturer's specifications and the assay plate was read on a PerkinElmer Envision at 620 nm. Inhibition data for the test compound over a range of concentrations was plotted as percentage inhibition of the test compound (100%=maximum inhibition). IC50 values were determined after correcting for background [(sample read−mean of low control)/(mean of high control−mean of low control)] where by the low control is DMSO without stimulation and high control is DMSO with stimulation. The IC50 is defined as the concentration of test compound which produces 50% inhibition and was quantified using the 4 parameter logistic equation to fit the data.
The compound `CC(C)(O)c1ccc(-c2ccc3nc4c(n3n2)[C@@H](c2ccc(F)cc2C(F)(F)F)NC[C@H]4O)cc1` (racemic) [Example 39, (+/−)-cis-9-(4-fluoro-2-(trifluoromethyl)phenyl)-2-(4-(2-hydroxypropan-2-yl)phenyl)-6,7,8,9-tetrahydropyrido[4′,3′:4,5]imidazo[1,2-b]pyridazin-6-ol] gave an IC50 of less than 1 µM.
Next, `NC(=O)c1ccc(-c2ccc3nc4c(n3n2)[C@@H](c2ccccc2OC(F)F)NC[C@H]4O)cc1Cl` (racemic) [Example 48, (+/−)-cis-2-chloro-4-(9-(2-(difluoromethoxy)phenyl)-6-hydroxy-6,7,8,9-tetrahydropyrido[4′,3′:4,5]imidazo[1,2-b]pyridazin-2-yl)benzamide]: 10 to 25 µM; `CC(C)(O)c1ccc(-c2ccc3nc4c(n3n2)C(c2ccccc2OC(F)F)OCC4(C)O)cc1` (stereo not drawn) [Example 59, 9-(2-(Difluoromethoxy)phenyl)-2-(4-(2-hydroxypropan-2-yl)phenyl)-6-methyl-6,9-dihydro-7H-pyrano[4′,3′:4,5]imidazo[1,2-b]pyridazin-6-ol]: 1 to 10 µM; `COc1ccc(-c2ccc3nc4c(n3n2)[C@H](c2ccccc2OC(F)F)NC[C@H]4O)cn1` (racemic) [Example 51, (+/−)-trans-9-(2-(difluoromethoxy)phenyl)-2-(6-methoxypyridin-3-yl)-6,7,8,9-tetrahydropyrido[4′,3′:4,5]imidazo[1,2-b]pyridazin-6-ol]: 10 to 25 µM.
With `CC(C)(O)c1ccc(-c2ccc3nc4c(n3n2)[C@@H](c2ccccc2OC(F)F)NC[C@@H]4O)cc1` [Example 15, trans-(6S,9R)-9-(2-(difluoromethoxy)phenyl)-2-(4-(2-hydroxypropan-2-yl)phenyl)-6,7,8,9-tetrahydropyrido [4′,3′:4,5]imidazo[1,2-b]pyridazin-6-ol], the IC50 lay within 1 to 10 µM.
Next, “(+/−)-cis-9-(2-(difluoromethoxy)phenyl)-2-(4-(3-hydroxypentan-3-yl)phenyl)-6,7,8,9-tetrahydropyrido[4′,3′:4,5]imidazo[1,2-b]pyridazin-6-ol [Example 49]”: 1 to 10 µM; “(+/−)-cis-9-(2-(difluoromethoxy)phenyl)-2-(4-(2-hydroxybutan-2-yl)phenyl)-6,7,8,9-tetrahydropyrido[4′,3′:4,5]imidazo[1,2-b]pyridazin-6-ol [Example 50]”: 1 to 10 µM.
The figure for `COc1cc(-c2ccc3nc4c(n3n2)[C@@H](c2ccccc2OC(F)F)NC[C@H]4O)ccc1OCC(C)(C)O` (racemic) [Example 30, (+/−)-cis-9-(2-(difluoromethoxy)phenyl)-2-(4-(2-hydroxy-2-methylpropoxy)-3-methoxyphenyl)-6,7,8,9-tetrahydropyrido[4′,3′:4,5]imidazo[1,2-b]pyridazin-6-ol] is 1 to 10 µM.
Consider `CC(C)(O)c1ncc(-c2ccc3nc4c(n3n2)C(c2ccccc2OC(F)F)OCC4)cn1` (stereo not drawn) [Example 63, 2-(5-(9-(2-(Difluoromethoxy)phenyl)-7,9-dihydro-6H-pyrano[4′,3′:4,5]imidazo[1,2-b]pyridazin-2-yl)pyrimidin-2-yl)propan-2-ol], for which the IC50 is less than 1 µM.
The figure for “(+/−)-trans-9-(4-fluoro-2-methylphenyl)-2-(4-(2-hydroxypropan-2-yl)phenyl)-6,7,8,9-tetrahydropyrido[4′,3′:4,5]imidazo[1,2-b]pyridazin-6-ol [Example 44]” is less than 1 µM; for `CC(C)(O)c1ncc(-c2ccc3nc4c(n3n2)[C@@H](c2ccccc2OC(F)F)NC[C@H]4F)cn1` (racemic) [Example 10, (+/−)-cis-2-(5-(9-(2-(difluoromethoxy)phenyl)-6-fluoro-6,7,8,9-tetrahydropyrido [4′,3′:4,5]imidazo[1,2-b]pyridazin-2-yl)pyrimidin-2-yl)propan-2-ol] it is 1 to 10 µM.
The figure for `COc1ccc(-c2ccc3nc4c(n3n2)C(c2ccccc2OC(F)F)NCC4O)cn1` [Example 16, cis-(6R,9S)-9-(2-(difluoromethoxy)phenyl)-2-(6-methoxypyridin-3-yl)-6,7,8,9-tetrahydropyrido[4′,3′:4,5]imidazo[1,2-b]pyridazin-6-ol] is 1 to 10 µM.
